Measured values as given in ChEMBL document CHEMBL4619828, “Discovery of Potent and Orally Bioavailable Small Molecule Antagonists of Toll-like Receptors 7/8/9 (TLR7/8/9)” (ACS Med Chem Lett, 2020).

Assays:
Toll-like receptor 9 [1] = biological target: T1, Toll-like receptor 9 (Homo sapiens, UniProt Q9NR96); test: Antagonist activity at human TLR9 overexpressed in HEK-Blue cells assessed as inhibition of ODN2006-induced NFkappaB and AP-1 activation preincubated for 30 mins followed by ODN2006 stimulation measured after 22 hrs by quanti-blue SEAP assay; type: cell-based
T1 sequence (Q9NR96 whole entry): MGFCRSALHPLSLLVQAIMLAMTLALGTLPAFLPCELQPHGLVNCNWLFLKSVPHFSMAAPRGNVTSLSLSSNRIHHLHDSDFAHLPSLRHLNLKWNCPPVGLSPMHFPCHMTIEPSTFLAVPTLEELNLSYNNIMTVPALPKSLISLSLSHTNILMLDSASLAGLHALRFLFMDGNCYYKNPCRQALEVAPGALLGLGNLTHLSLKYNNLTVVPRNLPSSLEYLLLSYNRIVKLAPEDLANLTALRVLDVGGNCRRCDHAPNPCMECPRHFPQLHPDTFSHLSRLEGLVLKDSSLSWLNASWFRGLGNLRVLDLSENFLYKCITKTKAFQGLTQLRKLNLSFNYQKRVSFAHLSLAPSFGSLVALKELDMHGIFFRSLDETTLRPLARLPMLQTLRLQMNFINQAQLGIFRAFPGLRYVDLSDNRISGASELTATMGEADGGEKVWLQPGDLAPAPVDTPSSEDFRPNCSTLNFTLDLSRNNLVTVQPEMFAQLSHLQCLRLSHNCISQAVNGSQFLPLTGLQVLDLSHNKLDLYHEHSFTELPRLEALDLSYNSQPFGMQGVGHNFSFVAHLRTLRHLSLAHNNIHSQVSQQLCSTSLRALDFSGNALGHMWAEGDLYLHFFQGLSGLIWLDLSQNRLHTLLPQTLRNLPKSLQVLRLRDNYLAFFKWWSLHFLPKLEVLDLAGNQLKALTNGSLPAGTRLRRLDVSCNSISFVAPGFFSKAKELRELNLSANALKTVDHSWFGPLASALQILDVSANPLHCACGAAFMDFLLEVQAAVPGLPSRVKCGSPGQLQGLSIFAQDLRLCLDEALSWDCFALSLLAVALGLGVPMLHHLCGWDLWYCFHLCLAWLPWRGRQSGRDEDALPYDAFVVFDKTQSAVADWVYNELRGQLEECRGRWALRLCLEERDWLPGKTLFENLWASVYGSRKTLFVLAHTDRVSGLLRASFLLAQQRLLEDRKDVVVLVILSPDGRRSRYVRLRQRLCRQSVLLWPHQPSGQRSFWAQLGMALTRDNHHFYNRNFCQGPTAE

[2] = Oral bioavailability in mouse at 15 mg/kg; type: ADME, organism-based; conditions: in vivo
Toll-like receptor 7 = biological target: T2, Toll-like receptor 7 (Mus musculus, UniProt P58681); test: In vivo antagonist activity at TLR7 in po dosed C57BL/6 mouse assessed as reduction of gardiquimod-induced IL-6 production pretreated for 30 mins followed by gardiquimod-stimulation and measured after 120 mins by ELISA
T2 sequence (P58681 whole entry): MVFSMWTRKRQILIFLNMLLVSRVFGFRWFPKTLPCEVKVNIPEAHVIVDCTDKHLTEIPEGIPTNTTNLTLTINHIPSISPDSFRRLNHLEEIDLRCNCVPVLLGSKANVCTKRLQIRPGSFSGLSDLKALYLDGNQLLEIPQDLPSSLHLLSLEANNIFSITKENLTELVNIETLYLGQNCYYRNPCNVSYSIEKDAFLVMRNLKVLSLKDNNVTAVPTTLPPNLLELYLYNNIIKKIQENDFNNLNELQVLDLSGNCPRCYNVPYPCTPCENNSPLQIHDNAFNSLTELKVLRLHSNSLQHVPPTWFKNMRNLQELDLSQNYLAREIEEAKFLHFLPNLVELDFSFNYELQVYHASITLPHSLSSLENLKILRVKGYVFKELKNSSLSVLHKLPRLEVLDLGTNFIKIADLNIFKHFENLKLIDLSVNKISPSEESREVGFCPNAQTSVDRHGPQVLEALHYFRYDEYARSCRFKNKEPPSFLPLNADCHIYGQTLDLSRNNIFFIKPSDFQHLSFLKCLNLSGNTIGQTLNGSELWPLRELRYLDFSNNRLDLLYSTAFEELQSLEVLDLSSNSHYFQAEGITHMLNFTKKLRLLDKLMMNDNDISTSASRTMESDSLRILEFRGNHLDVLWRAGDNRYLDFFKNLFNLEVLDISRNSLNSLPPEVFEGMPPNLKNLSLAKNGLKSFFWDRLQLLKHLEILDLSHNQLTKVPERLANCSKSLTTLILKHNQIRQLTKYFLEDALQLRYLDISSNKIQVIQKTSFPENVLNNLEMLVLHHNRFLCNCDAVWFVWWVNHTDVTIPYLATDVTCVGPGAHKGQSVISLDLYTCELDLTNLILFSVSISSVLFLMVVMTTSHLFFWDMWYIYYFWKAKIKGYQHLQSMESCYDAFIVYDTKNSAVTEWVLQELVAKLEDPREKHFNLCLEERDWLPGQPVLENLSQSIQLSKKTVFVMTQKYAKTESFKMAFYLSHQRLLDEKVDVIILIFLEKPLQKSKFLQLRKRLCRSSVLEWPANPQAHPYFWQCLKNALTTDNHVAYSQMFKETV

Toll-like receptor 9 [3] = biological target: T1, Toll-like receptor 9; test: Antagonist activity at TLR9 in human whole blood cells assessed as inhibition of ODN-2216 induced IL-6 production by ELISA; type: cell-based
[4] = Terminal half life in mouse at 3 mg/kg, iv; type: ADME, organism-based; conditions: in vivo, read-out: beta t1/2 (converted)
[5] = Clearance in mouse at 3 mg/kg, iv; type: ADME, organism-based; conditions: in vivo

Compound: CNCCN1CCC(c2ccc3[nH]c(-c4ccc(OC)c(OC)c4)c(C(C)C)c3c2)CC1
- IC50 (Toll-like receptor 9 [1]): 700 nM
- bioavailability [2]: 62%
- EC50 (Toll-like receptor 7): 2.4 nM
- IC50 (Toll-like receptor 9 [3]): 320 nM
- half-life [4]: 32 h
- clearance [5]: 7.7 mL/min/kg
